Laboratory results from ChEMBL document CHEMBL1201862, “PubChem BioAssay data set” (2004).
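Values below derive from 48-hour exposures of cells grown in 96-well plates, with endpoints linearly interpolated between the two concentrations bracketing the appropriate inhibition level. Here, GI50 denotes the concentration required for 50% inhibition of growth.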 The source made the active and inactive calls. No stated cut-off is given here; in the data, active = GI50 up to about 1.1 µM and inactive = higher.

Legend:
Experiment in all cases: DTP human tumour cell line panel, 48 h
M14 = test system: M14
SF-539 = test system: SF-539
OVCAR-3 = test system: OVCAR-3
KM12 = test system: KM12
ACHN = test system: ACHN
HCT-15 = test system: HCT-15
MDA-MB-231 = test system: MDA-MB-231
K562 = test system: K562
RXF 393 = test system: RXF 393
OVCAR-4 = test system: OVCAR-4
U-251 = test system: U-251
CCRF-CEM = test system: CCRF-CEM
786-0 = test system: 786-0
UACC-62 = test system: UACC-62
HT-29 = test system: HT-29
HL-60 = test system: HL-60
OVCAR-5 = test system: OVCAR-5
SF-295 = test system: SF-295
TK-10 = test system: TK-10

| SMILES | GI50 (M14) | GI50 (SF-539) | GI50 (OVCAR-3) | GI50 (KM12) | GI50 (ACHN) | GI50 (HCT-15) [µM] | GI50 (MDA-MB-231) | GI50 (K562) | GI50 (RXF 393) | GI50 (OVCAR-4) | GI50 (U-251) | GI50 (CCRF-CEM) | GI50 (786-0) | GI50 (UACC-62) | GI50 (HT-29) | GI50 (HL-60) | GI50 (OVCAR-5) | GI50 (SF-295) | GI50 (TK-10) |
| --- | --- | --- | --- | --- | --- | --- | --- | --- | --- | --- | --- | --- | --- | --- | --- | --- | --- | --- | --- |
| O=C(Nc1cccc2ccccc12)c1cc2ccccc2oc1=O | > 100 µM (inactive) | 14.6 µM (inactive) | 70.5 µM (inactive) | > 100 µM (inactive) | 24.3 µM (inactive) | > 100 | 23.6 µM (inactive) | > 100 µM (inactive) | 22.6 µM (inactive) | 78 µM (inactive) | 34 µM (inactive) | > 100 µM (inactive) | 13.7 µM (inactive) | > 100 µM (inactive) | 28.1 µM (inactive) | > 100 µM (inactive) | 41.1 µM (inactive) |  |  |
| Cc1cc(N(CCCl)CCCl)ccc1/C=N/NC(=O)Cc1cc(=O)oc2cc(O)ccc12 | 14.3 µM (inactive) | 18 µM (inactive) | 21.3 µM (inactive) | 16.6 µM (inactive) | 6.67 µM (inactive) | 14.4 | 30.6 µM (inactive) | 9.18 µM (inactive) | 16.6 µM (inactive) | 16.6 µM (inactive) | 14.2 µM (inactive) | 6.38 µM (inactive) | 18.8 µM (inactive) | 2.37 µM (inactive) | 14.7 µM (inactive) | 12.2 µM (inactive) | 31.6 µM (inactive) | 17.2 µM (inactive) |  |
| CN(C)C(=S)N1C(=S)N(c2ccccc2)C(=N/c2ccccc2)/C1=N\c1ccccc1 |  | > 100 µM (inactive) |  | > 100 µM (inactive) | > 100 µM (inactive) | > 100 | > 100 µM (inactive) | > 100 µM (inactive) | > 100 µM (inactive) | > 100 µM (inactive) | > 100 µM (inactive) | > 100 µM (inactive) | > 100 µM (inactive) | > 100 µM (inactive) | > 100 µM (inactive) | > 100 µM (inactive) | > 100 µM (inactive) | > 100 µM (inactive) | > 100 µM (inactive) |
| CC1(C)OC2C(=O)C=C(COCc3ccccc3)C2O1 (configuration not stated) | 26.3 µM (inactive) | 30 µM (inactive) |  | 21.5 µM (inactive) | 31.6 µM (inactive) | 35.2 | 27.4 µM (inactive) | 23.6 µM (inactive) | 15.5 µM (inactive) |  | 29.2 µM (inactive) | 21 µM (inactive) | 42.8 µM (inactive) | 12.3 µM (inactive) | 33 µM (inactive) | 11.2 µM (inactive) | 31.1 µM (inactive) | 35.2 µM (inactive) | 28.2 µM (inactive) |
| CCCCCCCCCCCCCCCCOCC(COP(=O)([O-])OCC[n+]1ccc(N(C)C)cc1)OCC (configuration not stated) | 12.4 µM (inactive) | 13.5 µM (inactive) | 11.4 µM (inactive) | 0.0527 µM (active) | 16.8 µM (inactive) | 18.2 | 8.55 µM (inactive) | 19.3 µM (inactive) | 16.3 µM (inactive) | 15.8 µM (inactive) | 11.7 µM (inactive) | 10.5 µM (inactive) | 18 µM (inactive) | 12.7 µM (inactive) | 13.9 µM (inactive) | 1.52 µM (inactive) |  | 16.5 µM (inactive) | 14.9 µM (inactive) |
| COc1ccc(/C=C/C(=O)CCN2CCN(CCC(=O)/C=C/c3ccc(OC)cc3)CC2)cc1 | 15.3 µM (inactive) | 6.17 µM (inactive) | 11.4 µM (inactive) | 10.7 µM (inactive) | 14.2 µM (inactive) | 8.53 | 12.6 µM (inactive) | 5.22 µM (inactive) | 4.25 µM (inactive) | 22.8 µM (inactive) | 12.1 µM (inactive) |  | 3.4 µM (inactive) | 13.4 µM (inactive) | 10.4 µM (inactive) | 4.61 µM (inactive) | 17.9 µM (inactive) | 8.26 µM (inactive) | 14.9 µM (inactive) |
| CC(=O)C12C[C@](C#N)(N3CCCCCC3)C1C=Cc1ccccc12 (some centres not stated) | > 100 µM (inactive) | > 100 µM (inactive) | > 100 µM (inactive) | > 100 µM (inactive) | > 100 µM (inactive) | > 100 | > 100 µM (inactive) | > 100 µM (inactive) | > 100 µM (inactive) | > 100 µM (inactive) | > 100 µM (inactive) | > 100 µM (inactive) | > 100 µM (inactive) | > 100 µM (inactive) | > 100 µM (inactive) | > 100 µM (inactive) |  | > 100 µM (inactive) | > 100 µM (inactive) |
| O=C(O)Cc1cc(Cl)ccc1O | > 100 µM (inactive) | > 100 µM (inactive) | > 100 µM (inactive) | > 100 µM (inactive) | > 100 µM (inactive) | > 100 | > 100 µM (inactive) |  | > 100 µM (inactive) | > 100 µM (inactive) | > 100 µM (inactive) | > 100 µM (inactive) | > 100 µM (inactive) | > 100 µM (inactive) | > 100 µM (inactive) | > 100 µM (inactive) | > 100 µM (inactive) | > 100 µM (inactive) | > 100 µM (inactive) |
| COC(=O)c1c(O)ccc2c1c1c(n2Cc2ccccn2)C(=O)c2ccccc2C1 | > 100 µM (inactive) | 87.9 µM (inactive) | > 100 µM (inactive) | > 100 µM (inactive) |  | > 100 | > 100 µM (inactive) | > 100 µM (inactive) | 31.6 µM (inactive) | 19.4 µM (inactive) | > 100 µM (inactive) | 27.9 µM (inactive) | > 100 µM (inactive) | > 100 µM (inactive) | 32.8 µM (inactive) | > 100 µM (inactive) | 49.8 µM (inactive) | > 100 µM (inactive) | > 100 µM (inactive) |
| C=CCOC(=O)N1c2ccc(O)cc2[C@@]23O[C@@]24[C@@H]1C#C/C=C\C#C[C@]3(O)C(OC)(OC)C[C@@H]4C | 23.8 µM (inactive) | 21.6 µM (inactive) |  | 24.9 µM (inactive) | 17.7 µM (inactive) | 44.2 | 23.6 µM (inactive) | 34.8 µM (inactive) | 41.7 µM (inactive) | 0.258 µM (active) | 33.5 µM (inactive) | 23.6 µM (inactive) | 22.2 µM (inactive) | 33.7 µM (inactive) | 21.7 µM (inactive) | 32.8 µM (inactive) | 75.9 µM (inactive) | 36.9 µM (inactive) | 29.9 µM (inactive) |
| Cc1cn(C2CC(N=[N+]=[N-])C(C(=O)O)O2)c(=O)[nH]c1=O (configuration not stated) | > 100 µM (inactive) | > 100 µM (inactive) | > 100 µM (inactive) | > 100 µM (inactive) | > 100 µM (inactive) | > 100 | > 100 µM (inactive) | > 100 µM (inactive) | > 100 µM (inactive) | > 100 µM (inactive) | > 100 µM (inactive) | > 100 µM (inactive) | > 100 µM (inactive) | > 100 µM (inactive) | > 100 µM (inactive) | > 100 µM (inactive) | > 100 µM (inactive) |  | > 100 µM (inactive) |
| COC1C(=O)CCC2(CO2)C1(O)C1(C)OC1CCC(C)C (configuration not stated) | 20.1 µM (inactive) | > 100 µM (inactive) | > 100 µM (inactive) | 10.2 µM (inactive) | 28.2 µM (inactive) | 29.4 | 15.6 µM (inactive) | 32.5 µM (inactive) | > 100 µM (inactive) | > 100 µM (inactive) | 13.5 µM (inactive) | 40.4 µM (inactive) | 47.2 µM (inactive) | 36.2 µM (inactive) | 22.2 µM (inactive) | 42.8 µM (inactive) | > 100 µM (inactive) | 13.6 µM (inactive) |  |
| O=C1O[C@H](COC(=O)c2ccccc2)[C@@H](OC(=O)c2ccccc2)C=C1OC(=O)c1ccccc1 | 17.5 µM (inactive) | 17.6 µM (inactive) | 18.3 µM (inactive) | 33.7 µM (inactive) | 16 µM (inactive) | 17.7 | 17.5 µM (inactive) | 24.3 µM (inactive) | 17 µM (inactive) | 20.9 µM (inactive) | 18.2 µM (inactive) | 14.1 µM (inactive) | 18.2 µM (inactive) | 20.7 µM (inactive) |  | 10.5 µM (inactive) | 21 µM (inactive) | 17.8 µM (inactive) | 27.9 µM (inactive) |
| CC(=O)N1C(c2[nH]c3ccccc3c2-c2ccccc2)CCN1c1ccccc1 (configuration not stated) | > 10 µM (inactive) | > 10 µM (inactive) | > 10 µM (inactive) |  | > 10 µM (inactive) | > 10 | > 10 µM (inactive) | 9.18 µM (inactive) | > 10 µM (inactive) | > 10 µM (inactive) |  | 7.8 µM (inactive) | > 10 µM (inactive) |  | > 10 µM (inactive) | > 10 µM (inactive) | > 10 µM (inactive) | > 10 µM (inactive) | > 10 µM (inactive) |
| COc1cc(C2c3cc4c(cc3OC(NN)C2C)OCO4)cc(OC)c1O (configuration not stated) | 10.4 µM (inactive) | 11.9 µM (inactive) | 3.66 µM (inactive) | 6.08 µM (inactive) |  | 3.72 | 9.2 µM (inactive) | 3.08 µM (inactive) | 15.3 µM (inactive) | 26.8 µM (inactive) | 7.23 µM (inactive) |  | 11.3 µM (inactive) | 4.92 µM (inactive) | 6.22 µM (inactive) | 2.24 µM (inactive) | 31.6 µM (inactive) | 3.85 µM (inactive) | 26.2 µM (inactive) |
| COc1c(O)cc2c(c1O)C1O[C@H](CO)C(O)[C@H](O)[C@H]1OC2=O (some centres not stated) | > 100 µM (inactive) | > 100 µM (inactive) | > 100 µM (inactive) | > 100 µM (inactive) | > 100 µM (inactive) | > 100 | > 100 µM (inactive) | > 100 µM (inactive) | > 100 µM (inactive) | > 100 µM (inactive) | > 100 µM (inactive) | > 100 µM (inactive) | > 100 µM (inactive) |  | > 100 µM (inactive) | > 100 µM (inactive) | > 100 µM (inactive) | > 100 µM (inactive) | > 100 µM (inactive) |
